# Measurements published in article PMC6009863, “Symmetric molecules with 1,4-triazole moieties as potent inhibitors of tumour-associated lactate dehydrogenase-A” (Journal of Enzyme Inhibition and Medicinal Chemistry, 2017).
# Molecular target: T1, recombinant human LDHA protein (Homo sapiens, UniProt P00338)
# T1 construct: purchased Abcam ab93699
# Test: LDHA inhibition assay (Lactate Dehydrogenase Assay Kit, colorimetric)
# Type: biochemical
# Settings: mean from three different assays, colorimetric assay measuring absorbance at 450 nm, errors ±5–10%
# Procedure: All 15 symmetrical compounds were evaluated for their ability to inhibit LDHA, for the comparison galloflavin as a known isoform nonselective LDHA inhibitor[20] was used. Our choice of galloflavin was based on the fact that it is extensively studied as potent anticancer agents in recent years; additionally, galloflavin is already commercially available.
# Lactate Dehydrogenase Assay Kit (Abcam, ab102526) and recombinant human LDHA protein (Abcam, ab93699) were used to assess the inhibitory effect of the tested compounds. First we generated a NADH standard curve for colorimetric detection by measuring the OD (450 nm) at different molar amounts of NADH. The linear regression equation of the curve was derivatized in Graphpad Prism. Tested compounds were dissolved in DMSO and their inhibitory activity was assessed at 140 and 300 μM strength. Galloflavin (Sigma, SML0776) at the same molar concentration was used as a known LDH inhibitor. The master reaction mix composed of LDH assay buffer and 10 ng human LDHA […] per reaction was prepared. Tested compounds were added and the final reaction volume was adjusted to 50 µL. Absorbance at 450 nm was taken after 2-3 minutes (T-initial) and continued every minute for 118 mins (T-final). The change in measurement over time (delta A450) was calculated as T-final minus T-initial. The amount of NADH generated by the assay between T-initial and T-final was deduced by comparing the A450 of each sample to the standard NADH standard curve. […]
row,SMILES,IC50 [µM]
1,NS(=O)(=O)c1ccc(NC(=O)Cn2cc(-c3cccc(-c4cn(CC(=O)Nc5ccc(S(N)(=O)=O)cc5)nn4)c3)nn2)cc1 [Compound 7a],128
2,O=C(Cn1cc(-c2cccc(-c3cn(CC(=O)Nc4ccc(C(=O)O)cc4)nn3)c2)nn1)Nc1ccc(C(=O)O)cc1 [Compound 7b],120
3,O=C(Cn1cc(-c2cccc(-c3cn(CC(=O)Nc4ccc([N+](=O)[O-])cc4)nn3)c2)nn1)Nc1ccc([N+](=O)[O-])cc1 [Compound 7c],172
4,NS(=O)(=O)c1ccc(CNC(=O)Cn2cc(-c3cccc(-c4cn(CC(=O)NCc5ccc(S(N)(=O)=O)cc5)nn4)c3)nn2)cc1 [Compound 11a],158
5,O=C(Cn1cc(-c2cccc(-c3cn(CC(=O)NCc4ccc(C(=O)O)cc4)nn3)c2)nn1)NCc1ccc(C(=O)O)cc1 [Compound 11b],156
6,NS(=O)(=O)c1ccc(NC(=O)Cn2cc(-c3cncc(-c4cn(CC(=O)Nc5ccc(S(N)(=O)=O)cc5)nn4)c3)nn2)cc1 [Compound 15a],136
7,O=C(Cn1cc(-c2cncc(-c3cn(CC(=O)Nc4ccc(C(=O)O)cc4)nn3)c2)nn1)Nc1ccc(C(=O)O)cc1 [Compound 15b],125
8,O=C(Cn1cc(-c2cncc(-c3cn(CC(=O)Nc4ccc([N+](=O)[O-])cc4)nn3)c2)nn1)Nc1ccc([N+](=O)[O-])cc1 [Compound 15c],156
9,NS(=O)(=O)c1ccc(CNC(=O)Cn2cc(-c3cncc(-c4cn(CC(=O)NCc5ccc(S(N)(=O)=O)cc5)nn4)c3)nn2)cc1 [Compound 16a],174
10,O=C(Cn1cc(-c2cncc(-c3cn(CC(=O)NCc4ccc(C(=O)O)cc4)nn3)c2)nn1)NCc1ccc(C(=O)O)cc1 [Compound 16b],117
11,COc1cc(-c2cn(CC(=O)Nc3ccc(S(N)(=O)=O)cc3)nn2)cc(-c2cn(CC(=O)Nc3ccc(S(N)(=O)=O)cc3)nn2)c1 [Compound 20a],165
12,COc1cc(-c2cn(CC(=O)Nc3ccc(C(=O)O)cc3)nn2)cc(-c2cn(CC(=O)Nc3ccc(C(=O)O)cc3)nn2)c1 [Compound 20b],127
13,COc1cc(-c2cn(CC(=O)Nc3ccc([N+](=O)[O-])cc3)nn2)cc(-c2cn(CC(=O)Nc3ccc([N+](=O)[O-])cc3)nn2)c1 [Compound 20c],163
14,COc1cc(-c2cn(CC(=O)NCc3ccc(S(N)(=O)=O)cc3)nn2)cc(-c2cn(CC(=O)NCc3ccc(S(N)(=O)=O)cc3)nn2)c1 [Compound 21a],173
15,COc1cc(-c2cn(CC(=O)NCc3ccc(C(=O)O)cc3)nn2)cc(-c2cn(CC(=O)NCc3ccc(C(=O)O)cc3)nn2)c1 [Compound 21b],128
16,"O=c1oc2c(cc1O)oc(=O)c1cc(O)c(O)c(O)c12 [Galloflavin, reference compound]",157

# System: not given
# Test: not given
# Settings: not given
row,SMILES,melting point [°C]
1,O=C(Cn1cc(-c2cccc(-c3cn(CC(=O)Nc4ccc(C(=O)O)cc4)nn3)c2)nn1)Nc1ccc(C(=O)O)cc1 [Compound 7b],291 to 292

# System: LDHA
# Test: not given
# Set-up: method as in PMID 22417091
# Settings: NMR and SPR fragment based hit identification series; read-out: IC50 (LDHA inhibition); cited from earlier work
row,SMILES,IC50 [nM]
1,CCCSc1nc2ccc(NC(=O)CCNC(=O)CCCc3ccc(CC(C(=O)O)C(=O)O)cc3)cc2s1 [A],270

# System: LDHA
# Test: not given
# Set-up: method as in PMID 23302067
# Settings: fragment-based hit identification series; read-out: IC50 (LDHA inhibition); cited from earlier work
row,SMILES,IC50 [nM]
1,COc1cc(OC[C@@H](O)[C@@H](O)[C@H](O)[C@H](O)CNc2cc(F)cc(-c3ccc(C(=O)O)cn3)c2)c(Cl)cc1NC(=O)CSc1ccc(C(=O)O)cn1 [B],120

# System: LDHA
# Test: not given
# Set-up: method as in PMID 30108883
# Settings: docking-based virtual screening hit; read-out: IC50 (LDHA inhibition potency in vitro); cited from earlier work
row,SMILES,IC50 [nM]
1,CCc1cc(=O)c(O)c([C@@H](CC(N)=O)c2cc3ccccc3n(CC(C)C)c2=O)o1 [C],330
